{
  "source": "patent US6365187B2",
  "about": "“Bioadhesive microspheres and their use as drug delivery and imaging systems” (priority 1992, dated 2002)",
  "details": "rat, in vivo",
  "protocol": "The animals were then housed in metabolic cages and the feces were collected every three hours for a period of four days. At given time intervals, the rats were X-rayed, and the distribution of the microspheres in the stomach and in the intestine was followed. The collected feces were also X-rayed in order to monitor the total transit time of the microspheres through the GI tract.\nTests were conducted in areas of distinct pH and physiology: the stomach (low pH range), and the intestine (basic environment, pH ranging from 5-7, in the proximal to distal regions, respectively), FIGS. 6a, 6b, and 6c.",
  "data": [
    {"substance": "alginate", "values": [
      {"measurement": "retention time in the intestine, ranking", "value": "longest retention time from the group of hydrogels"}
    ]}
  ]
}
